Molecules are shown by their SMILES. Converted amounts (≈) assume the structure as drawn.

The results in this text go back to US7812045B2, “Antifungal triazole derivatives” (Daewoong Pharmaceutical Co., Ltd., priority 2005, dated 2010).

The test system of series [1] is HepG2 cells.
Experimental: HepG2 cells were aliquoted at a population of 5×10^4 counts per well of 96-well plates and grown at 37° C. in a 5% CO2 incubator for 1 day. The culture medium in each well was replaced with a fresh medium containing the compounds of interest, followed by overnight incubation in the incubator. Following the addition of 100 μl of a 100 μg/ml Neutral red solution into each well, the cells were stained for 3 hours in the incubator and fixed in 1% formaldehyde with 1% CaCl2. The cells were destained in 1% glacial acetic acid plus 50% ethanol, followed by measurement for absorbance at 540 nm. Cytotoxicity was expressed as percentages of optical density relative to that of the control, treated with none of the compounds.
In series [2] the test system is Aspergillus flavus ATCC MYA-1004. Put plainly: In vitro assay for antifungal activity (MIC90). The class given is cell-based. As to conditions: RPMI 1640, growth read after 48 hours, duplicate. The protocol: (§1) Fungal strains to be tested were inoculated onto Sabouraud dextrose agar, YM agar, and potato dextrose agar and cultured at 35° C. for two to three days. Individual single colonies of the yeast fungi selected out of the cultured strains were suspended in 5 ml of 0.85% sterile saline, followed by correction to adjust the absorbance thereof at 530 nm to 0.108. The suspensions were diluted serially by 1:50 and then 1:20 in RPMI 1640 media to prepare liquid inocula ranging in cell count from 1.0×10^3 to 5.0×10^3 CFU/ml. As for filamentous fungi, their spores were suspended in 0.85% sterile saline and the suspensions were corrected with sterile saline to show optical transmittance at 530 nm of 80 to 82%. A dilution of 1:50 was made with RPMI 1640 media to prepare liquid inocula having cell counts from […] to 5×10^4 CFU/ml.
(§2) Antifungal samples were prepared by diluting the compounds of the present inventions in RPMI 1640 media to serial concentrations from 0.0625 to 32 μg/ml. As a vehicle, DMSO was contained in a final concentration of 1% (V/V) in the antifungal samples. 0.1 ml of each of the dilutions in series was added to equal volume of each of the fungal inocula.

In series [3] the test system is Aspergillus fumigatus ATCC MYA-1163. Put plainly: In vitro assay for antifungal activity (MIC90). The class given is cell-based. Particulars: RPMI 1640, growth read after 48 hours, duplicate. The protocol: as §1, §2
In series [4] the test system is Aspergillus niger ATCC 9142. The series is described as follows: In vitro assay for antifungal activity (MIC90). Particulars: duplicate; for MIC90 (concentration at which 90% of the fungi were inhibited compared to the negative control): RPMI 1640, growth read after 48 hours. The class given is cell-based. As for the experimental part: as §1, §2
Series [5] relates to Aspergillus terreus ATCC 28301. Put plainly: In vitro assay for antifungal activity (MIC90). The class given is cell-based. As to conditions: duplicate; for MIC90 (concentration at which 90% of the fungi were inhibited compared to the negative control): RPMI 1640, growth read after 48 hours. The protocol:
as §1, §2

Series [6] relates to Candida albicans ATCC 32033. The series is described as follows: In vitro assay for antifungal activity (MIC90). The class given is cell-based. As to conditions: duplicate; for MIC90 (concentration at which 90% of the fungi were inhibited compared to the negative control): RPMI 1640, growth read after 24 hours. As for the experimental part:
as §1, §2

For series [7], the system named is Candida glabrata ATCC 34138. Put plainly: In vitro assay for antifungal activity (MIC90). The class given is cell-based. Particulars: duplicate; for MIC90 (concentration at which 90% of the fungi were inhibited compared to the negative control): RPMI 1640, growth read after 24 hours. As for the experimental part: as §1, §2
In series [8] the test system is Candida krusei ATCC 6258. The series is described as follows: In vitro assay for antifungal activity (MIC90). The class given is cell-based. Particulars: duplicate; for MIC90 (concentration at which 90% of the fungi were inhibited compared to the negative control): RPMI 1640, growth read after 24 hours. As for the experimental part:
as §1, §2

The subject of series [9] is Cryptococcus neoformans ATCC 4065. The series is described as follows: In vitro assay for antifungal activity (MIC90). The class given is cell-based. As to conditions: for MIC90 (concentration at which 90% of the fungi were inhibited compared to the negative control): RPMI 1640, duplicate. As for the experimental part: as §1, §2
The test system of series [10] is Candida albicans (ATCC 36082). Put plainly: In vivo assay for antifungal activity (survival of infected mice). Particulars: ICR mice infected i.v. with Candida albicans ATCC 36082; 20 mg/kg orally once a day for seven days (day 0 to day 6); groups of 10. As for the experimental part: Candida albicans (ATCC 36082) was grown in YM broth on a rotary shaker (200 rpm, 26° C.) for about 12 hours to a concentration of 2.5×10^7 CFU/ml and used to infect ICR mice at a dose of 0.2 ml/head via caudal veins. Suspensions or solutions of the azole compounds in a 25% beta-hydroxypropyl methylcellulose base were orally administered at a dose of 20 mg/kg to respective infected ICR mice in groups of 10, the condition and body weights of the mice were monitored, and autopsies were finally conducted. For a negative control, the vehicle alone was used while fluconazole was administered to a positive control. The mice were inoculated once with the fungal preparation on the day of commencement of the administration. The test materials of interest and the positive control material were orally administered to the inoculated mice once a day for seven days from day 0 to day 6, with the first oral administration made five hours after the fungal inoculation (day 0). The periods of time for which the infected mice lived were counted.
The number of mice which survived the fungal infection for 21 days following the inoculation was represented as % survival for each test group, and the results are given in Table 11, below. All members of the negative control were dead 8 days after the fungal infection, while all of the groups administered with Compound 50 were dead 18 days after the fungal infection.

Series [11] in a line: Assay for acute toxicity. Particulars: mice; oral administration, to a dose of 1000 mg/kg; observed for two weeks; suspension in 25% beta-hydroxypropyl methylcellulose base or polyethylene glycol 400. The class given is in vivo.
The mark [12] stands for this setting: read-out: MIC90 (concentration at which 90% of the fungi were inhibited compared to the negative control).

Turning to `C[C@@H](n1nc(Cl)c2ccccc21)[C@](O)(Cn1cncn1)c1ccc(F)cc1F` [Example 52], the “Cytotoxicity (percentages of optical density relative to that of the control)” value in [1] is given as 5.6%.

For `C[C@@H](n1cc2cc(Br)ccc2n1)[C@](O)(Cn1cncn1)c1ccc(F)cc1F` [Example 60], the “MIC90 (concentration at which 90% of the fungi were inhibited compared to the negative control)” value is 1 µg/mL in [2]; 0.5 µg/mL in series [3]; 1 µg/mL in series [4]; 1 µg/mL in series [5]; “≦0.015 μg/ml” in series [6]; 2 µg/mL in series [7]. For the same compound, the “MIC90 (concentration at which 90% of the fungi were inhibited compared to the negative control)” value in [8] and in [9] was 1 µg/mL each time. For the same compound, in series [10], the “% Survival on Day 21” value stood at 10%. Also, in series [11], the “acute toxicity: toxic syndromes observed” value was “no toxic syndromes”.

On to `Cc1c2c(Cl)cccc2nn1[C@H](C)[C@](O)(Cn1cncn1)c1ccc(F)cc1F` [Example 68], for which the “Cytotoxicity (percentages of optical density relative to that of the control)” value in [1] was found to be 2.4%.

As to `Cc1nn([C@H](C)[C@](O)(Cn2cncn2)c2ccc(F)cc2F)c2cccc(Cl)c12` [Example 69], the “Cytotoxicity (percentages of optical density relative to that of the control)” value in series [1] was found to be 1.6%.

For `C[C@@H](n1ncc2cc([N+](=O)[O-])ccc21)[C@](O)(Cn1cncn1)c1ccc(F)cc1F` [Example 234, (2R,3R)-2-(2,4-difluorophenyl)-3-(5-nitro-1H-indazol-1-yl)-1-(1H-1,2,4-triazol-1-yl)butan-2-ol], the MIC90 in [2] (setting [12]) is 1 µg/mL (≈ 2.41 µM); in series [3] (setting [12]), 2 µg/mL (≈ 4.83 µM); in [4] (ATCC9142, RPMI 1640, growth read after 48 hours, read-out: MIC90 (concentration at which 90% of the fungi were inhibited compared to the negative control)) it was 2 µg/mL (≈ 4.83 µM); in series [5] (ATCC28301, RPMI 1640, growth read after 48 hours, read-out: MIC90 (concentration at which 90% of the fungi were inhibited compared to the negative control)) it was 2 µg/mL (≈ 4.83 µM); in series [6] (ATCC32033, RPMI 1640, growth read after 24 hours, read-out: MIC90 (concentration at which 90% of the fungi were inhibited compared to the negative control)), at most 0.015 µg/mL; in series [7] (Nakaseomyces glabratus, ATCC34138, RPMI 1640, growth read after 24 hours, read-out: MIC90 (concentration at which 90% of the fungi were inhibited compared to the negative control)), 4 µg/mL (≈ 9.65 µM). The MIC90 in series [8] (Pichia kudriavzevii, ATCC6258, RPMI 1640, growth read after 24 hours, read-out: MIC90 (concentration at which 90% of the fungi were inhibited compared to the negative control)) came to 0.5 µg/mL (≈ 1.21 µM); in series [9] (ATCC4065, RPMI 1640, duplicate, read-out: MIC90 (concentration at which 90% of the fungi were inhibited compared to the negative control)), 0.125 µg/mL (≈ 0.302 µM). In addition, the “% Survival on Day 21” value in series [10] amounted to 40%. For the same compound, the “acute toxicity: toxic syndromes observed” value in series [11] is “no toxic syndromes”.

For `C[C@@H](n1ncc2cc(NCc3cccc(Cl)c3)ccc21)[C@](O)(Cn1cncn1)c1ccc(F)cc1F` [Example 240], in [1], the “Cytotoxicity (percentages of optical density relative to that of the control)” value came out at 5.2%.

With `C[C@@H](n1ncc2cc(N(C)C)ccc21)[C@](O)(Cn1cncn1)c1ccc(F)cc1F` [Example 310], the “MIC90 (concentration at which 90% of the fungi were inhibited compared to the negative control)” value in series [2] came to 1 µg/mL; in [3] it was 2 µg/mL; in series [4] it was 2 µg/mL; in series [5], 2 µg/mL; in series [6], 0.063 µg/mL; in series [7], 8 µg/mL. Besides, the “MIC90 (concentration at which 90% of the fungi were inhibited compared to the negative control)” value is 1 µg/mL in [8] and 0.5 µg/mL in [9]. Further, the “% Survival on Day 21” value in [10] was determined as 40%. Moreover, the “acute toxicity: toxic syndromes observed” value in series [11] is reported as “no toxic syndromes”.
